This note sets out measurements from patent publication US9902728B2, “Pyrrolo and pyrazolopyrimidines as ubiquitin-specific protease 7 inhibitors” (Forma Therapeutics, Inc., priority 2014, dated 2018).

In the first test the target is T1, USP7 (Homo sapiens, UniProt Q93009).
T1 construct: USP7, construct USP7 (208-1102) 6*His, Viva Biotech; 6xHis (C); purchased Viva Biotech
T1 sequence (Q93009 208-1102): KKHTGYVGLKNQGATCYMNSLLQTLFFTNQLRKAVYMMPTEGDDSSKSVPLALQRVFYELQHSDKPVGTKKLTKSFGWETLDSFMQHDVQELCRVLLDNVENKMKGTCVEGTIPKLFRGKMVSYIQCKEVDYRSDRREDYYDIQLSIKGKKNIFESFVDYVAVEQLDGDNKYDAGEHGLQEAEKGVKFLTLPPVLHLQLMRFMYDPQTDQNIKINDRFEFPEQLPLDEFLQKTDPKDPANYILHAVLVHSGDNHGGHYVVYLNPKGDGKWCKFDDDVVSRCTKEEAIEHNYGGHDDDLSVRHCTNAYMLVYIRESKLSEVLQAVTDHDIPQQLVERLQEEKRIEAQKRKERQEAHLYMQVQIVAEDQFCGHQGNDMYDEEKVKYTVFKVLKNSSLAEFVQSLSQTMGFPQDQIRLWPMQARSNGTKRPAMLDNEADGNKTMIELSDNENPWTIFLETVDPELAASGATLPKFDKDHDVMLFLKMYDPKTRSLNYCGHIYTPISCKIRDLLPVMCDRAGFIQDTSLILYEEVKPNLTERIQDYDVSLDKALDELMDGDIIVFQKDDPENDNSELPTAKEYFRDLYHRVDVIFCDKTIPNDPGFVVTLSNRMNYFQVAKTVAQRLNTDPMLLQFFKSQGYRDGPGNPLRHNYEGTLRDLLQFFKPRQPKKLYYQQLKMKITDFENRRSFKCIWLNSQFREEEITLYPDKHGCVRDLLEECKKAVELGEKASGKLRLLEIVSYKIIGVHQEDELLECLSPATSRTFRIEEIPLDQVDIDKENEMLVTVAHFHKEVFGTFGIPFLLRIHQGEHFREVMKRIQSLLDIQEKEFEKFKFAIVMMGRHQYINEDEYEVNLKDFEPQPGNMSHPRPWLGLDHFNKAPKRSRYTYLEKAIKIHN
Kind of test: USP7 Assay A (Ubitquin-Rhodamine 110 Assay). Conditions: USP7 activity in USP7 assay A and B (table does not say which assay per compound); read-out: USP7_IC50. The class given is biochemical. An outline of the steps:
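Enzyme and compound sat together for 30 min before Ub-Rh110 was added, in buffer of 20 mM Tris-HCl (pH 8.0), 1 mM GSH, 0.03% BGG and 0.01% Triton X-100.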
`O=C(N1CCC(O)(Cn2cnc3c(cnn3-c3ccc(F)cc3)c2=O)CC1)N1CC[C@H]1Cc1ccccc1` [Compound I-760]: the IC50 lay within 1000 to 10000 nM.

As for `O=C(C1CCC(Oc2ccncc2)CC1)N1CCC(O)(Cn2cnc3c(cnn3-c3ccc(F)cc3)c2=O)CC1` (stereo not drawn) [Compound I-751], the IC50 lay within 1000 to 10000 nM.

As to `O=C(C1CC(Nc2ccccn2)C1)N1CCC(O)(Cn2cnc3c(cnn3-c3ccc(F)cc3)c2=O)CC1` (stereo not drawn) [Compound I-1034], the IC50 fell in the range of 1000 to 10000 nM.

Turning to `Cn1cc(C(=O)N2CCC(O)(Cn3cnc4c(ccn4-c4ccc(F)cc4)c3=O)CC2)cn1` [Compound I-1078], the IC50 fell in the range of 200 to 1000 nM.

Regarding `Cc1ccc(-n2ncc3c(=O)n(CC4(O)CCN(C(=O)c5ccc(Oc6ccc(OCCO)cn6)cc5)CC4)cnc32)cc1` [Compound I-1160], the IC50 was 200 to 1000 nM.

Regarding `O=C(c1ccc(F)cc1)N1CCC(O)(Cn2cnc3c(cnn3-c3ccc(N4CCCn5nccc54)cc3)c2=O)CC1` [Compound I-1654], the IC50 lay in the range of 200 to 1000 nM.

Regarding `O=C(C[C@H](C(F)F)n1cccn1)N1CCC(O)(Cn2cnc3c(cnn3-c3ccc(Cl)cc3)c2=O)CC1` [Compound I-1131], the IC50 was in the range of 1000 to 10000 nM.

In the case of `C=CC(=O)N1CC[C@]1(C)C(=O)N1CCC(O)(Cn2cnc3c(cnn3-c3ccc(-c4ccccc4)cc3)c2=O)CC1` [Compound I-660], the IC50 is 200 to 1000 nM.

In the case of `O=C(c1ccc(Oc2ccccn2)cn1)N1CCC(O)(Cn2cnc3c(cnn3-c3ccc(F)cc3)c2=O)CC1` [Compound I-547], the IC50 is 1000 to 10000 nM.

On to `O=C(C1CCC(Oc2ccc(F)cn2)CC1)N1CCC(O)(Cn2cnc3c(cnn3-c3ccccc3)c2=O)CC1` (stereo not drawn) [Compound I-743], for which the IC50 was in the range of 1000 to 10000 nM.

`O=C(c1ccc(-n2ccnc2)cc1)N1CCC(O)(Cn2cnc3c(cnn3-c3ccc(Cl)cc3)c2=O)CC1` [Compound I-1088]: the IC50 lay within 200 to 1000 nM.

Turning to `C[C@H](c1ccccc1)c1nn(C)cc1C(=O)N1CCC(O)(Cn2cnc3c(cnn3-c3ccc(F)cc3)c2=O)CC1` [Compound I-1162], the IC50 is less than 200 nM.

Consider `O=C(c1ccc(F)cc1)N1CCC(O)(Cn2cnc3c(cnn3-c3ccc(N4CC[C@H](O)C4)cc3)c2=O)CC1` [Compound I-1434], for which the IC50 lay in the range of 1000 to 10000 nM.

Consider `O=C(C1CCC(Oc2cccnc2)CC1)N1CCC(O)(Cn2cnc3c(cnn3-c3ccc(F)cc3)c2=O)CC1` (stereo not drawn) [Compound I-750], for which the IC50 was 200 to 1000 nM.

Consider `Cn1cc(-c2ccc(-n3ncc4c(=O)n(CC5(O)CCN(C(=O)c6ccc(F)cc6)CC5)cnc43)cc2)cn1` [Compound I-1672], for which the IC50 was in the range of 1000 to 10000 nM.

As for `CC1(C(=O)N2CCC(O)(Cn3cnc4c(cnn4-c4cccc(N5CCN(C6COC6)CC5)c4)c3=O)CC2)CC1` [Compound I-1700], the IC50 was in the range of 200 to 1000 nM.

As for `O=C(c1ccc(F)cc1)N1CCC(O)(Cn2cnc3c(cnn3-c3ccc(N4CCC5(CC4)CC(CO)C5)cc3)c2=O)CC1` [Compound I-1740], the IC50 lay within 200 to 1000 nM.

As to `CN1Cc2cnn(-c3ccc(C(=O)N4CCC(O)(Cn5cnc6c(cnn6-c6ccc(F)cc6)c5=O)CC4)cc3)c2C1` [Compound I-1000], the IC50 lay in the range of 1000 to 10000 nM.

Turning to `O=C(C1CCC(Oc2cccc(F)n2)CC1)N1CCC(O)(Cn2cnc3c(cnn3-c3ccc(F)cc3)c2=O)CC1` (stereo not drawn) [Compound I-740], the IC50 fell in the range of 200 to 1000 nM.

`Cc1ncc(OC2CCC(C(=O)N3CCC(O)(Cn4cnc5c(cnn5-c5ccc(F)cc5)c4=O)CC3)CC2)cn1` (stereo not drawn) [Compound I-1022]: the IC50 was in the range of 200 to 1000 nM.

As to `C[C@@H]1CN(c2cccc(-n3ncc4c(=O)n(CC5(O)CCN(C(=O)C6(C)CC6)CC5)cnc43)c2)CCN1C` [Compound I-1689], the IC50 was less than 200 nM.

For `C=CC(=O)N1CCC1C(=O)N1CCC(O)(Cn2cnc3c(cnn3-c3cccc(N4CCN(C)CC4)c3)c2=O)CC1` (stereo not drawn) [Compound I-831], the IC50 is less than 200 nM.

Staying with this test, now noted: USP7 assay A and B (table does not say which assay per compound); read-out: USP7_IC50.
With `COc1ccc(C(=O)N2CCC(O)(Cn3cnc4c(cnn4-c4ccccc4)c3=O)CC2)cc1` [Compound I-157], the IC50 was 200 to 1000 nM.

`O=C(c1cnc(C2CC2)o1)N1CCC(O)(Cn2cnc3c(cnn3-c3ccc(C(F)(F)F)cc3)c2=O)CC1` [Compound I-1437]: the IC50 was 1000 to 10000 nM.

`Cc1cc(C(=O)N2CCC(O)(Cn3cnc4c(cnn4-c4ccccc4)c3=O)CC2)ccc1Cl` [Compound I-212]: the IC50 was 200 to 1000 nM.

In the case of `Cc1ccc(-n2ncc3c(=O)n(CC4(O)CCN(C(=O)c5ccc(OC6CCNCC6)cc5)CC4)cnc32)cc1` [Compound I-1145], the IC50 is 1000 to 10000 nM.

`CC(C)(C)c1ccc(-n2ncc3c(=O)n(CC4(O)CCN(C(=O)C5CC5)CC4)cnc32)cc1` [Compound I-25]: the IC50 was in the range of 200 to 1000 nM.

Take `Cc1cccc(C(=O)N2CCC(O)(Cn3cnc4c(cnn4-c4ccccc4)c3=O)CC2)c1F` [Compound I-206]: the IC50 fell in the range of 1000 to 10000 nM.

Take `C=CS(=O)(=O)NCC(Cc1ccccc1)C(=O)N1CCC(O)(Cn2cnc3c(cnn3C)c2=O)CC1` (stereo not drawn) [Compound I-170]: the IC50 is more than 10000 nM.

`O=C(c1ccc(OC(F)F)cc1)N1CCC(O)(Cn2cnc3c(cnn3-c3cnn(C4CC4)c3)c2=O)CC1` [Compound I-705]: the IC50 was in the range of 1000 to 10000 nM.

Regarding `CN(C)C1CCN(C(=O)c2cccc(-n3ncc4c(=O)n(CC5(O)CCN(C(=O)C6CC6)CC5)cnc43)c2)CC1` [Compound I-1468], the IC50 lay in the range of 1000 to 10000 nM.

As for `O=C(C1CC1)N1CCC(O)(Cn2cnc3c(cnn3-c3ccc(Cl)cc3)c2=O)CC1` [Compound I-35], the IC50 fell in the range of 1000 to 10000 nM.

For the molecule `C#CC(=O)NC1CC(C(=O)N2CCC(O)(Cn3cnc4c(cnn4-c4ccc(-c5ccccc5)cc4)c3=O)CC2)C1` (stereo not drawn) [Compound I-658], the IC50 lay within 1000 to 10000 nM.

With `O=C(c1cc2n(n1)CCO2)N1CCC(O)(Cn2cnc3c(cnn3-c3ccc(Cl)cc3)c2=O)CC1` [Compound I-1527], the IC50 lay within 1000 to 10000 nM.

`Cc1ccc(-n2ncc3c(=O)n(CC4(O)CCN(C(=O)C[C@H](C)c5ccccc5)CC4)cnc32)cc1` [Compound I-1139]: the IC50 is less than 200 nM.

With `C=CC(=O)NC1CCC(C(=O)N2CCC(O)(Cn3cnc4c(cnn4-c4ccc(F)cc4)c3=O)CC2)CC1` (stereo not drawn) [Compound I-576], the IC50 was 1000 to 10000 nM.

As for `COc1ccc(Cl)cc1C(=O)N1CCC(O)(Cn2cnc3c(cnn3-c3ccccc3)c2=O)CC1` [Compound I-218], the IC50 lay within 1000 to 10000 nM.

`CN(C)S(=O)(=O)Nc1ccc(-n2ncc3c(=O)n(CC4(O)CCN(C(=O)C5CC5)CC4)cnc32)cc1` [Compound I-505]: the IC50 fell in the range of 1000 to 10000 nM.

Regarding `O=C(c1ccc(F)cc1)N1CCC(O)(Cn2cnc3c(cnn3-c3ccc(C4(O)CC4)cc3)c2=O)CC1` [Compound I-713], the IC50 is 1000 to 10000 nM.

For the molecule `COc1cc(OC)cc(C(=O)N2CCC(O)(Cn3cnc4c(cnn4-c4ccccc4)c3=O)CC2)c1` [Compound I-203], the IC50 was more than 10000 nM.

As for `O=C(c1ccccc1)N1CCC(O)(Cn2cnc3c(ccn3-c3ccc(F)cc3)c2=O)CC1` [Compound I-48], the IC50 lay within 1000 to 10000 nM.

On to `O=C(C1CCC1)N1CCC(O)(Cn2cnc3c(cnn3-c3ccccc3)c2=O)CC1` [Compound I-194], for which the IC50 lay in the range of 1000 to 10000 nM.

Take `COc1cc(C(=O)N2CCC(O)(Cn3cnc4c(cnn4-c4ccccc4)c3=O)CC2)ccc1Cl` [Compound I-226]: the IC50 lay in the range of 1000 to 10000 nM.

For `O=C(C1CC1)N1CCC(O)(Cn2cnc3c(cnn3-c3cccc(NS(=O)(=O)c4cccc(Cl)c4)c3)c2=O)CC1` [Compound I-1406], the IC50 was in the range of 1000 to 10000 nM.

`O=C(C1CC1)N1CCC(O)(Cn2cnc3c(cnn3-c3ccc(Oc4ccccc4)cc3)c2=O)CC1` [Compound I-296]: the IC50 fell in the range of 1000 to 10000 nM.
